The values that follow come from US8754209B2, “Indazole derivatives or pharmaceutically acceptable salts thereof as protein kinase inhibitors for proliferative diseases treatment, and a pharmaceutical composition containing the same as an active ingredient” (Korea Institute of Science and Technology, priority 2009, dated 2014).

In this assay the test system is A375P cells. Kind of assay: Anti-proliferative activity on A375P cell line (MTT assay). The format is cell-based. The note with it: A375P human melanoma cell line. How it is done: A375P cells were purchased from American Type Culture Collection (ATCC, Rockville, Md., US) and maintained in DMEM medium (Welgene, Daegu, Korea) supplemented with 10% FBS (Welgene) and 1% penicillin/streptomycin (Welgene) in a humidified atmosphere with 5% CO2 at 37° C. The A375P cells were taken from culture substrate with 0.05% trypsin-0.02% EDTA and plated at a density of 5×10^3 cells/well in 96 well plates and then incubated at 37° C. for 24 h in a humidified atmosphere with 5% CO2 prior to treatment of various concentration (three fold serial dilution, 12 points) of test compounds. The A357P cell viability was assessed by the conventional 3-(4,5-dimethylthiazol-2-yl)-2,5-diphenyltetrazolium bromide (MTT) reduction assay. MTT assays were carried out with CellTiter 96 (Promega) according to the manufacturer's instructions.
After 1 day, 0.5 μl the representative compounds of the examples were added thereto. The representative compounds of the examples were prepared by three fold serial dilution of 10 mM stock solution in DMSO, 12 point (final conc. DMSO 0.5%). Then, 15 μl dye was added in each well. After 2 h, 100 μl stop solution was added each well. After 24 h, absorbance was measured. The absorbance at 590 nm was recorded using EnVision2103 (PerkinElmer; Boston, Mass., US). The IC50 value was calculated using GraphPad Prism 4.0 software.

As for `CCOC(=O)c1n[nH]c2cc(-c3ccc(NC(=O)c4cccc(C(F)(F)F)c4)cc3)ccc12` [Example 2, ethyl 6-(4-(3-(trifluoromethyl)benzamido)phenyl)-1H-indazole-3-carboxylate], the GI50 is under 10 µM.
`CCOC(=O)c1n[nH]c2cc(-c3ccc(NC(=O)c4ccnnc4)cc3)ccc12` [Example 10, ethyl 6-(4-(pyridazine-4-carboxamido)phenyl)-1H-indazole-3-carboxylate]: the GI50 is under 10 µM.
`CCOC(=O)c1n[nH]c2cc(-c3ccc(NC(=O)Cc4ccc(OC)c(OC)c4)cc3)ccc12` [Example 11, ethyl 6-(4-(2-(3,4-dimethoxyphenyl)acetamido)phenyl)-1H-indazole-3-carboxylate]: the GI50 was under 10 µM.
In turn, `CCOC(=O)c1n[nH]c2cc(-c3ccc(NC(=O)c4ccncc4Cl)cc3)ccc12` [Example 13, ethyl 6-(4-(3-chloroisonicotinamido)phenyl)-1H-indazole-3-carboxylate] gave a GI50 of under 10 µM.
For `CCOC(=O)c1n[nH]c2cc(-c3ccc(NC(=O)c4ccc(OC)c5ccc(OC)cc45)cc3)ccc12` [Example 15, ethyl 6-(4-(4,7-dimethoxy-1-naphthamido)phenyl)-1H-indazole-3-carboxylate] the value was under 10 µM; for `CCOC(=O)c1n[nH]c2cc(-c3ccc(NC(=O)c4ccc(-c5cc(C(F)(F)F)ccc5Cl)o4)cc3)ccc12` [Example 16, ethyl 6-(4-(5-(2-chloro-5-(trifluoromethyl)phenyl)furan-2-carboxamido)phenyl)-1H-indazole-3-carboxylate], under 10 µM; for `CCOC(=O)c1n[nH]c2cc(-c3ccc(NC(=O)c4ccc(OC5CCN(C)CC5)c(C(F)(F)F)c4)cc3)ccc12` [Example 19, ethyl 6-(4-(4-(1-methylpiperidin-4-yloxy)-3-(trifluoromethyl)benzamido)phenyl)-1H-indazole-3-carboxylate], under 10 µM.
For `CCOC(=O)c1n[nH]c2cc(-c3ccc(NC(=O)Nc4ccc(Cl)c(Cl)c4)cc3)ccc12` [Example 20, ethyl 6-(4-(3-(3,4-dichlorophenyl)ureido)phenyl)-1H-indazole-3-carboxylate] the value was under 10 µM; for `CCOC(=O)c1n[nH]c2cc(-c3ccc(NC(=O)Nc4cc(C(F)(F)F)cc(C(F)(F)F)c4)cc3)ccc12` [Example 22, ethyl 6-(4-(3-(3,5-bis(trifluoromethyl)phenyl)ureido)phenyl)-1H-indazole-3-carboxylate], under 10 µM; for `CCOC(=O)c1n[nH]c2cc(-c3ccc(NC(=O)Nc4cccc(C(F)(F)F)c4)cc3)ccc12` [Example 23, ethyl 6-(4-(3-(3-(trifluoromethyl)phenyl)ureido)phenyl)-1H-indazole-3-carboxylate], under 10 µM.
For `CNC(=O)c1n[nH]c2cc(-c3ccc(NC(=O)c4ccc(-c5ccc(OC)cc5)o4)cc3)ccc12` [Example 25, 6-(4-(5-(4-methoxyphenyl)furan-2-carboxamido)phenyl)-N-methyl-1H-indazole-3-carboxamide] the value was under 10 µM; for `CNC(=O)c1n[nH]c2cc(-c3ccc(NC(=O)c4ccc(Br)s4)cc3)ccc12` [Example 26, 6-(4-(5-bromothiophene-2-carboxamido)phenyl)-N-methyl-1H-indazole-3-carboxamide], under 10 µM; for `CNC(=O)c1n[nH]c2cc(-c3ccc(NC(=O)c4cc5ccccc5s4)cc3)ccc12` [Example 27, 6-(4-(benzo[b]thiophene-2-carboxamido)phenyl)-N-methyl-1H-indazole-3-carboxamide], under 10 µM.
For the compound `O=C(Nc1ccc(-c2ccc3c(C(=O)NCCN4CCOCC4)n[nH]c3c2)cc1)c1cccc(C(F)(F)F)c1` [Example 30, N-(2-morpholinoethyl)-6-(4-(3-(trifluoromethyl)benzamido)phenyl)-1H-indazole-3-carboxamide], the GI50 was under 10 µM.
Regarding `O=C(Nc1ccc(-c2ccc3c(C(=O)NCCN4CCOCC4)n[nH]c3c2)cc1)c1ccc(Br)s1` [Example 31, 6-(4-(5-bromothiophene-2-carboxamido)phenyl)-N-(2-morpholinoethyl)-1H-indazole-3-carboxamide], the GI50 is under 10 µM.
With `O=C(Nc1ccc(-c2ccc3c(C(=O)NCCN4CCOCC4)n[nH]c3c2)cc1)c1cc2ccccc2s1` [Example 32, 6-(4-(benzo[b]thiophene-2-carboxamido)phenyl)-N-(2-morpholinoethyl)-1H-indazole-3-carboxamide] the figure was under 10 µM; with `Cc1cc(C(=O)Nc2ccc(-c3ccc4c(C(=O)NCCN5CCOCC5)n[nH]c4c3)cc2)c(C)o1` [Example 33, 6-(4-(2,5-dimethylfuran-3-carboxamido)phenyl)-N-(2-morpholinoethyl)-1H-indazole-3-carboxamide], under 10 µM; with `COc1ccc(-n2ncc(C(=O)Nc3ccc(-c4ccc5c(C(=O)NCCN6CCOCC6)n[nH]c5c4)cc3)c2C(F)(F)F)cc1` [Example 34, 6-(4-(1-(4-methoxyphenyl)-5-(trifluoromethyl)-1H-pyrazole-4-carboxamido)phenyl)-N-(2-morpholinoethyl)-1H-indazole-3-carboxamide], under 10 µM.
Regarding `O=C(Nc1ccc(-c2ccc3c(C(=O)Nc4cccc(C(F)(F)F)c4)n[nH]c3c2)cc1)c1ccc(Br)s1` [Example 35, 6-(4-(5-bromothiophene-2-carboxamido)phenyl)-N-(3-(trifluoromethyl)phenyl)-1H-indazole-3-carboxamide], the GI50 is under 10 µM.
`O=C(Nc1ccc(-c2ccc3c(C(=O)NCCN4CCOCC4)n[nH]c3c2)cc1)Nc1ccc(Cl)c(Cl)c1` [Example 36, 6-(4-(3-(3,4-dichlorophenyl)ureido)phenyl)-N-(2-morpholinoethyl)-1H-indazole-3-carboxamide] showed a 50% growth inhibitory concentration (GI50) of under 10 µM.
With `CNC(=O)c1n[nH]c2cc(-c3ccc(NC(=O)c4cc(-n5cnc(C)c5)cc(C(F)(F)F)c4)cc3)ccc12` [Example 39, N-methyl-6-(4-(3-(4-methyl-1H-imidazol-1-yl)-5-(trifluoromethyl)benzamido)phenyl)-1H-indazole-3-carboxamide] the figure was under 10 µM; with `CNC(=O)c1n[nH]c2cc(-c3ccc(NC(=O)c4ccc(OC5CCN(C)CC5)c(C(F)(F)F)c4)cc3)ccc12` [Example 40, N-methyl-6-(4-(4-(1-methylpiperidin-4-yloxy)-3-(trifluoromethyl)benzamido)phenyl)-1H-indazole-3-carboxamide], under 10 µM; with `COC(=O)c1n[nH]c2ccc(-c3ccc(NC(=O)Nc4ccc(Cl)c(C(F)(F)F)c4)cc3)cc12` [Example 43, methyl 5-(4-(3-(4-chloro-3-(trifluoromethyl)phenyl)ureido)phenyl)-1H-indazole-3-carboxylate], under 10 µM.
With `CCOC(=O)c1n[nH]c2cc(-c3cccc(NC(=O)c4cc(C)on4)c3)ccc12` [Example 46, ethyl 6-(3-(5-methylisoxazole-3-carboxamido)phenyl)-1H-indazole-3-carboxylate] the figure was under 10 µM; with `CCOC(=O)c1n[nH]c2cc(-c3cccc(NC(=O)c4cc5ccccc5s4)c3)ccc12` [Example 47, ethyl 6-(3-(benzo[b]thiophene-2-carboxamido)phenyl)-1H-indazole-3-carboxylate], under 10 µM.
`CCOC(=O)c1n[nH]c2cc(-c3cccc(NC(=O)c4ccc(Br)s4)c3)ccc12` [Example 49, ethyl 6-(3-(5-bromothiophene-2-carboxamido)phenyl)-1H-indazole-3-carboxylate] yielded a GI50 of under 10 µM.
With `COC(=O)c1n[nH]c2cc(-c3cccc(NC(=O)c4cc(N5CCOCC5)cc(C(F)(F)F)c4)c3)ccc12` [Example 52, methyl 6-(3-(3-morpholino-5-(trifluoromethyl)benzamido)phenyl)-1H-indazole-3-carboxylate] the figure was under 10 µM; with `CCOC(=O)c1n[nH]c2cc(-c3cccc(NC(=O)Nc4ccc(Cl)c(Cl)c4)c3)ccc12` [Example 55, ethyl 6-(3-(3-(3,4-dichlorophenyl)ureido)phenyl)-1H-indazole-3-carboxylate], under 10 µM; with `COC(=O)c1n[nH]c2cc(-c3cccc(NC(=O)Nc4ccc(C)cc4C)c3)ccc12` [Example 56, methyl 6-(3-(3-(2,4-dimethylphenyl)ureido)phenyl)-1H-indazole-3-carboxylate], under 10 µM.
Regarding `O=C(Nc1cccc(-c2ccc3c(C(=O)NCCN4CCOCC4)n[nH]c3c2)c1)c1cc(N2CCOCC2)cc(C(F)(F)F)c1` [Example 59, 6-(3-(3-morpholino-5-(trifluoromethyl)benzamido)phenyl)-N-(2-morpholinoethyl)-1H-indazole-3-carboxamide], the GI50 is under 10 µM.
In the case of `O=C(Nc1cccc(-c2ccc3c(C(=O)NCCN4CCOCC4)n[nH]c3c2)c1)Nc1cccc(Cl)c1Cl` [Example 60, 6-(3-(3-(2,3-dichlorophenyl)ureido)phenyl)-N-(2-morpholinoethyl)-1H-indazole-3-carboxamide], the GI50 is under 10 µM.
With `CCNC(=O)c1n[nH]c2cc(-c3cccc(NC(=O)Nc4cccc(Cl)c4Cl)c3)ccc12` [Example 61, 6-(3-(3-(2,3-dichlorophenyl)ureido)phenyl)-N-ethyl-1H-indazole-3-carboxamide], the GI50 is under 10 µM.
